The nature of data set [1]: Test I: arthritis pain test (method of A. W. Pircio et al.). Type of data set: in vivo. The conditions noted are these: po. An excerpt: (I) The arthritis pain test (based on the method of A. W. Pircio et al., Eur. J. Pharmacol. 31, 207-215, 1975); and
(§1) As previously indicated, required daily dosages will depend inter al. on the particular compound of the invention employed. Results obtained for the compounds (L)-(4-acetamido-phenyl)-2-oxo-thiazolidine-4-carboxylate (compound A) in accordance with the present invention and the known analgesic paracetamol (compound B) in tests I and II above are shown in the following table.

For data set [2], the system named is inflamed rat hind-paw. As to the kind of experiment: Test II: Randall-Selitto Test on the inflamed rat hind-paw. Type of data set: in vivo. The conditions noted are these: po.
Description: (II) The Randall-Selitto Test on the inflamed rat hind-paw (Arch. Int. Pharmacodyn. 61, 409-419, 1957).
as §1

Data set [3] has as its system GOT (Glutamate-Oxalacetate-Transaminase). The data set is described as follows: Hepatoxicity: GOT (Glutamate-Oxalacetate-Transaminase) level in mouse serum. The data set is classed as in vivo. Here is the method:
(§2) Thus on administration of 1'000 mg/kg p.o. of COMPOUND A in accordance with the invention to mice, no increase in GOT and GPT levels over levels in untreated controls (40 to 80 units/liter) is observed and no deaths are recorded. In contrast on administration of compound B (paracetamol) at a dosage of 560 mg/kg p.o., GOT levels are elevated to 3'800 units/liter and GPT levels are elevated to 3'000 units and on administration of compound B at a dosage of 1'000 mg/kg p.o., death of 2 out of 5 test animals is recorded.

Data set [4] has as its system GPT (Glutamate-Pyruvate-Transaminase). As to the kind of experiment: Hepatoxicity: GPT (Glutamate-Pyruvate-Transaminase) level in mouse serum. The data set is classed as in vivo. Here is the method: as §2
Data set [5] can be described thus: Deaths after oral administration to mice. The settings on record: 1'000 mg/kg p.o. Type of data set: in vivo, mouse.
The conditions of data set [6]: high dosages, cited from earlier work.
Where [7] appears, read: mice, 1'000 mg/kg p.o., untreated controls 40 to 80 units/liter.

By ED50 is commonly meant the dose that gives a 50% effect, or the effect in half of the subjects. Low values mean an effect at a small dose, high ones a need for a large dose. Consider `CC(=O)Nc1ccc(O)cc1` [COMPOUND B, N-(4-hydroxyphenyl)acetamide], for which the ED50 turned out to be 75 mg/kg in data set [1] (1 hr.), 142 mg/kg in data set [1] (3 hrs.), 261 mg/kg in data set [1] (5 hrs.) and 203 mg/kg in data set [2]. In data set [3] (mouse, in vivo, po, 560 mg/kg), the GOT levels is given as 3'800 units/liter. For the same compound, the GPT levels in data set [4] (mouse, in vivo, po, 560 mg/kg) is 3'000 units. For the same compound, the “death of test animals” value in data set [5] was 2 out of 5. Also, in data set [6] (following liver damage), the death entry is on record as “may lead to death”. Moreover, the “damage of the liver” value in data set [6] is given as “extensive damage of the liver”.

With `CC(=O)Nc1ccc(OC(=O)[C@@H]2CSC(=O)N2)cc1` [COMPOUND A, (L)-(4-acetamido-phenyl)-2-oxo-thiazolidine-4-carboxylate], the ED50 in data set [1] (1 hr.) was approximately 162 mg/kg; in data set [1] (3 hrs.), 162 mg/kg; in data set [1] (5 hrs.), 264 mg/kg; in data set [2], 310 mg/kg. For the same compound, in data set [3] (setting [7]), the “increase in GOT levels over levels in untreated controls” value is on record as “no increase”. Besides, in data set [4] (setting [7]), the “increase in GPT levels over levels in untreated controls” value is “no increase”. Besides, in data set [5], the deaths result is “no deaths”.

The values above are taken from patent US4567192A, “Acylaminophenol derivatives” (Sandoz Ltd., priority 1983, dated 1986).
